# Values quoted from earlier work, collected in patent US9293280B2, “Mixture of hydrofluoroolefine and hydrofluorocarbide to improve the internal ARC resistance in medium and high voltage electric apparatus” (priority 2012, dated 2016).
# How the values were obtained:
# [1] = test system: human; settings: average limiting content, 8 hours of work for 5 days per week without harmful effect
# [2] = test system: animal population; settings: causing the death of 50% of an animal population
structure (smiles),measurement,setting,value
"F/C=C/C(F)(F)F [HFO-1234ze, trans-1,3,3,3-tetrafluoro-1-propene]",average exposure value AEV,[1],1000 ppm
same,lethal dose LD50,[2],> 200 000 ppm
"O=C(C(F)(F)F)C(F)(C(F)(F)F)C(F)(F)F [C5K, decafluoro-2-methylbutan-3-one]",average exposure value AEV,[1],1000 ppm
same,lethal dose LD50,[2],greater than 200 000 ppm
